Assay results: US20230058961A1, “SUBSTITUTED HETEROCYCLICS WITH THERAPEUTIC ACTIVITY IN HIV” (New York Blood Center, Inc., priority 2019, published 2023)

Key:
pseudovirus HIV-1 HXB2 = assay: organism not typed; assay type: cell-based; conditions: anti-HIV-1 activity, single-cycle assay, TZM-bl cells, pseudovirus HIV-1 HXB2, read-out: IC50
TZM-bl cells = conditions: human, 3 days
Method: (§1) The anti-HIV-1 activity was assessed in a single-cycle assay by infecting TZM-bl indicator cells with the pseudovirus HIV-1 HXB2 according to established procedures (F. Curreli, Y. D. Kwon, D. S. Belov, R. R. Ramesh, A. V. Kurkin, A. Altieri, P. D. Kwong, A. K. Debnath, J Med Chem 2017, 60, 3124-3153; which is incorporated herein by reference for all that it teaches about the conduct and interpretation of the assay).
(§2) The cytotoxicity of the small polycyclic molecules in TZM-bl cells was determined by using the colorimetric method CellTiter 96® AQueous One Solution Cell Proliferation Assay (MTS) (Promega) following the manufacturer's instructions. Briefly, TZM-bl cells were platted in a 96-well tissue culture plate at 1×10^4/well and cultured at 37° C. Following overnight incubation, the cells were incubated with 100 μl of the compounds at graded concentrations and cultured for 3 days. The MTS reagent was added to the cells and incubated for 4 h at 37° C. The absorbance was recorded at 490 nm.

in vitro = conditions: human
Method: as §1, §2

[1] = CC50, cytotoxicity, TZM-bl cells, MTS, 3 days
[2] = Human immunodeficiency virus 1, HXB2, TZM-bl

Row | Structure (SMILES) | IC50 (pseudovirus HIV-1 HXB2) [µM] | CC50 (TZM-bl cells) [µM] | CC50 at 3 days (in vitro; CC50) [µM] | CC50 at 3 days (in vitro; [1]) [µM] | IC50 (pseudovirus HIV-1 HXB2; [2]) [µM]
1 | Cc1cc(-c2ccc(Cl)cn2)[nH]c1C(=O)NC(CN)c1ncc(CO)s1 (stereo not drawn) [Compound 4, N-(2-Amino-1-(5-(hydroxymethyl)thiazol-2-yl)ethyl)-5-(5-chloropyridin-2-yl)-3-methyl-1H-pyrrole-2-carboxamide] | 2.4 ± 0.2 | 95 ± 3.6 | – | – | –
2 | NCC(NC(=O)c1ccc(-c2ccc(C(F)(F)F)cn2)[nH]1)c1ncc(CO)s1 (stereo not drawn) [Compound 6, N-(2-Amino-1-(5-(hydroxymethyl)thiazol-2-yl)ethyl)-5-(5-(trifluoromethyl)pyridin-2-yl)-1H-pyrrole-2-carboxamide] | 1.2 | > 122 | – | – | –
3 | CC(C)(N)C(NC(=O)c1ccc(-c2ccc(C(F)(F)F)cn2)[nH]1)c1ncc(CO)s1 (stereo not drawn) [Compound 10, N-(2-Amino-1-(5-(hydroxymethyl)thiazol-2-yl)-2-methylpropyl)-5-(5-(trifluoromethyl)pyridin-2-yl)-1H-pyrrole-2-carboxamide] | 0.5 | 41 ± 2.5 | – | – | –
4 | Cc1cc(-c2ccc(C(F)(F)F)cn2)[nH]c1C(=O)NC(c1ncc(CO)s1)C(C)(C)N (stereo not drawn) [Compound 12, N-(2-Amino-1-(5-(hydroxymethyl)thiazol-2-yl)-2-methylpropyl)-3-methyl-5-(5-(trifluoro-methyl)pyridin-2-yl)-1H-pyrrole-2-carboxamide] | – | 37.5 ± 2.2 | – | – | –
5 | NCC(NC(=O)c1ccc(-c2ccc(C(F)(F)F)cn2)[nH]1)c1ncc(C(O)CO)s1 (stereo not drawn) [Compound 14, N-(2-Amino-1-(5-(1,2-dihydroxyethyl)thiazol-2-yl)ethyl)-5-(5-(trifluoromethyl)pyridin-2-yl)-1H-pyrrole-2-carboxamide] | 5.9 ± 0.6 | > 113 | – | – | –
6 | NCC(NC(=O)c1ccc(-c2ccc(Cl)cn2)[nH]1)c1nc(CO)cs1 (stereo not drawn) [Compound 16, N-(2-Amino-1-(4-(hydroxymethyl)thiazol-2-yl)ethyl)-5-(5-chloropyridin-2-yl)-1H-pyrrole-2-carboxamide] | 1.7 ± 0.3 | > 132 | – | – | –
7 | NCC(NC(=O)c1ccc(-c2ccc(F)cn2)[nH]1)c1nc(CO)cs1 (stereo not drawn) [Compound 18, N-(2-Amino-1-(4-(hydroxymethyl)thiazol-2-yl)ethyl)-5-(5-fluoropyridin-2-yl)-1H-pyrrole-2-carboxamide] | > 11 | > 138 | – | – | –
8 | Cc1ccc(-c2ccc(C(=O)NC(CN)c3nc(CO)cs3)[nH]2)nc1 (stereo not drawn) [Compound 19, N-(2-Amino-1-(4-(hydroxymethyl)thiazol-2-yl)ethyl)-5-(5-methylpyridin-2-yl)-1H-pyrrole-2-carboxamide] | 9.6 ± 1.2 | – | > 140 | > 100 | –
9 | Cc1ccc(-c2ccc(C(=O)NC(CN)c3nc(CO)cs3)[nH]2)nc1 (stereo not drawn) [Compound 20, N-(2-Amino-1-(4-(hydroxymethyl)thiazol-2-yl)ethyl)-5-(5-methylpyridin-2-yl)-1H-pyrrole-2-carboxamide] | > 11 | > 140 | – | – | > 10
10 | NCC(NC(=O)c1ccc(-c2ccc(C(F)(F)F)cn2)[nH]1)c1nc(CO)cs1 (stereo not drawn) [Compound 21, N-(2-Amino-1-(4-(hydroxymethyl)thiazol-2-yl)ethyl)-5-(5-(trifluoromethyl)pyridin-2-yl)-1H-pyrrole-2-carboxamide] | 0.5 | – | 96 ± 6 | – | –
11 | NCC(NC(=O)c1ccc(-c2ccc(C(F)(F)F)cn2)[nH]1)c1nc(CO)cs1 (stereo not drawn) [Compound 22, N-(2-Amino-1-(4-(hydroxymethyl)thiazol-2-yl)ethyl)-5-(5-(trifluoromethyl)pyridin-2-yl)-1H-pyrrole-2-carboxamide] | – | 124 ± 7 | – | – | –
12 | CC(C)(N)C(NC(=O)c1ccc(-c2ccc(C(F)(F)F)cn2)[nH]1)c1nc(CO)cs1 (stereo not drawn) [Compound 23, N-(2-Amino-1-(4-(hydroxymethyl)thiazol-2-yl)-2-methylpropyl)-5-(5-(trifluoromethyl)pyridin-2-yl)-1H-pyrrole-2-carboxamide] | 1.73 | – | 61 ± 6.5 | < 50 | –
13 | CC(C)(N)C(NC(=O)c1ccc(-c2ccc(C(F)(F)F)cn2)[nH]1)c1nc(CO)cs1 (stereo not drawn) [Compound 24, N-(2-Amino-1-(4-(hydroxymethyl)thiazol-2-yl)-2-methylpropyl)-5-(5-(trifluoromethyl)pyridin-2-yl)-1H-pyrrole-2-carboxamide] | 0.58 | 59 ± 10 | – | – | –
14 | NCC(NC(=O)c1ccc(-c2ccc(C(F)(F)F)cn2)[nH]1)c1nc(CCO)cs1 (stereo not drawn) [Compound 25, N-(2-Amino-1-(4-(2-hydroxyethyl)thiazol-2-yl)ethyl)-5-(5-(trifluoromethyl)pyridin-2-yl)-1H-pyrrole-2-carboxamide] | 1.7 | – | 100 ± 7 | – | –
15 | NCC(NC(=O)c1ccc(-c2ccc(C(F)(F)F)cn2)[nH]1)c1nc(CCO)cs1 (stereo not drawn) [Compound 26, N-(2-Amino-1-(4-(2-hydroxyethyl)thiazol-2-yl)ethyl)-5-(5-(trifluoromethyl)pyridin-2-yl)-1H-pyrrole-2-carboxamide] | 0.76 | 91 ± 3.6 | – | – | –
16 | NCC(NC(=O)c1ccc(-c2ccc(C(F)(F)F)cn2)[nH]1)c1nc(CCCO)cs1 (stereo not drawn) [Compound 28, N-(2-Amino-1-(4-(3-hydroxypropyl)thiazol-2-yl)ethyl)-5-(5-(trifluoromethyl)pyridin-2-yl)-1H-pyrrole-2-carboxamide] | 0.89 ± 0.12 | 81.2 ± 1.3 | – | – | –
17 | NCC(NC(=O)c1ccc(-c2ccc(C(F)(F)F)cn2)[nH]1)c1nc(C(O)CO)cs1 (stereo not drawn) [Compound 29, N-(2-Amino-1-(4-(1,2-dihydroxyethyl)thiazol-2-yl)ethyl)-5-(5-(trifluoromethyl)pyridin-2-yl)-1H-pyrrole-2-carboxamide] | – | – | > 113 | > 100 | 5.2 ± 0.9
18 | NCC(NC(=O)c1ccc(-c2ccc(C(F)(F)F)cn2)[nH]1)c1nc(CO)c(CO)s1 (stereo not drawn) [Compound 35, N-(2-Amino-1-(4,5-bis(hydroxymethyl)thiazol-2-yl)ethyl)-5-(5-(trifluoromethyl)pyridin-2-yl)-1H-pyrrole-2-carboxamide] | 1.8 | – | > 113 | – | –
19 | NCC(NC(=O)c1ccc(-c2ccc(C(F)(F)F)cn2)[nH]1)c1nccs1 (stereo not drawn) [Compound 37, N-(2-Amino-1-(thiazol-2-yl)ethyl)-5-(5-(trifluoromethyl)pyridin-2-yl)-1H-pyrrole-2-carboxamide] | – | – | 89.3 ± 1 | – | 2 ± 0.2
20 | NCC(NC(=O)c1ccc(-c2ccc(Cl)nc2)[nH]1)c1nc(CO)cs1 (stereo not drawn) [Compound 39, N-(2-Amino-1-(4-(hydroxymethyl)thiazol-2-yl)ethyl)-5-(6-chloropyridin-3-yl)-1H-pyrrole-2-carboxamide] | > 11 | – | > 132 | > 100 | > 10
21 | NCC(NC(=O)c1ccc(-c2ccc(C(F)(F)F)nc2)[nH]1)c1nc(CO)cs1 (stereo not drawn) [Compound 41, N-(2-Amino-1-(4-(hydroxymethyl)thiazol-2-yl)ethyl)-5-(6-(trifluoromethyl)pyridin-3-yl)-1H-pyrrole-2-carboxamide] | 12.7 ± 2.8 | – | > 122 | > 100 | > 10
22 | NCC(NC(=O)c1ccc(-c2ccc(C(F)(F)F)nn2)[nH]1)c1nc(CO)cs1 (stereo not drawn) [Compound 43, N-(2-Amino-1-(4-(hydroxymethyl)thiazol-2-yl)ethyl)-5-(6-(trifluoromethyl)pyridazin-3-yl)-1H-pyrrole-2-carboxamide] | > 12 | – | > 73 | – | > 10
23 | NCC(NC(=O)c1ccc(-c2ncc(Cl)cn2)[nH]1)c1nc(CO)cs1 (stereo not drawn) [Compound 45, N-(2-Amino-1-(4-(hydroxymethyl)thiazol-2-yl)ethyl)-5-(5-chloropyrimidin-2-yl)-1H-pyrrole-2-carboxamide] | > 15.8 | – | > 66 | – | > 10
24 | COc1cc(-c2ccc(C(=O)NC(CN)c3nc(CO)cs3)[nH]2)ccn1 (stereo not drawn) [Compound 47, N-(2-Amino-1-(4-(hydroxymethyl)thiazol-2-yl)ethyl)-5-(2-methoxypyridin-4-yl)-1H-pyrrole-2-carboxamide] | > 11 | – | > 133 | – | > 10
25 | NCC(NC(=O)c1ccc(-c2ccc(C(F)(F)F)cn2)[nH]1)c1cnc(CO)s1 (stereo not drawn) [Compound 57, N-(2-Amino-1-(2-(hydroxymethyl)thiazol-5-yl)ethyl)-5-(5-(trifluoromethyl)pyridin-2-yl)-1H-pyrrole-2-carboxamide] | – | – | > 122 | – | 2.1 ± 0.4
26 | NCC(NC(=O)c1ccc(-c2ccc(Cl)cn2)[nH]1)c1cnc(CO)s1 (stereo not drawn) [Compound 59, N-(2-Amino-1-(2-(hydroxymethyl)thiazol-5-yl)ethyl)-5-(5-chloropyridin-2-yl)-1H-pyrrole-2-carboxamide] | ~26 | – | > 106 | – | –
27 | Cc1cc(-c2ccc(C(F)(F)F)cn2)[nH]c1C(=O)NC(CN)c1cnc(CO)s1 (stereo not drawn) [Compound 61, N-(2-Amino-1-(2-(hydroxymethyl)thiazol-5-yl)ethyl)-3-methyl-5-(5-(trifluoromethyl)pyridin-2-yl)-1H-pyrrole-2-carboxamide] | – | – | 65 ± 4.9 | – | 2.3 ± 1
28 | Cc1cc(-c2ccc(C(F)(F)F)cn2)[nH]c1C(=O)NC(CN)c1csc(CO)n1 (stereo not drawn) [Compound 63, N-(2-Amino-1-(2-(hydroxymethyl)thiazol-4-yl)ethyl)-3-methyl-5-(5-(trifluoromethyl)pyridin-2-yl)-1H-pyrrole-2-carboxamide] | – | – | 42.3 ± 0.2 | – | 1.4 ± 0.1
29 | NCC(NC(=O)c1ccc(-c2ccc(C(F)(F)F)cn2)[nH]1)c1csc(CO)n1 (stereo not drawn) [Compound 65, N-(2-Amino-1-(2-(hydroxymethyl)thiazol-4-yl)ethyl)-5-(5-(trifluoromethyl)pyridin-2-yl)-1H-pyrrole-2-carboxamide] | – | – | 84.3 ± 1.4 | – | 1.6 ± 0.2
30 | NCC(NC(=O)c1ccc(-c2ccc(C(F)(F)F)cn2)[nH]1)c1csc(C(=O)NCCO)n1 (stereo not drawn) [Compound 69, 4-(2-Amino-1-(5-(5-(trifluoromethyl)pyridin-2-yl)-1H-pyrrole-2-carboxamido)ethyl)-N-(2-hydroxyethyl)thiazole-2-carboxamide] | – | – | > 107 | – | > 21.3
